{
  "source": "patent US20080269325A1",
  "about": "“Methods to Relieve Pain” (Imperial Innovations Limited, priority 2004, published 2008)",
  "key": {"[1]": {"tested_on": "rats rendered neuropathic by partial sciatic nerve ligation", "experiment": "Thermal hyperalgesia (Hargreaves' device), partial sciatic nerve ligation model", "type": "in vivo, rat", "description": "(§1) Male Wistar rats, weighing 250-350 g (mean 300 g) were housed at a constant temperature under a 14:10 light/dark cycle, with free access to food and water.\n(§2) The animals were randomised into four experimental groups, with six animals in each group:\n(§3) Group B. L-29 in a DMSO Vehicle in Three i.p. Doses: 0.1 mgkg^−1, 1 mgkg^−1, 10 mgkg^−1\n(§4) In this study, six animals were allocated to each dose group and baseline limb withdrawal thresholds were recorded for each animal at t=0. This was immediately followed by the ip. administration of L-29 solution.\n(§5) Limb withdrawal thresholds to all three modalities were recorded at t=0. Each animal then received i.p. injection of the antagonist in a 40% DMSO and saline solution, immediately followed by the administration of L-29 at a dose of 1 mgkg^−1 via the same route. Sensory testing resumed and limb withdrawal thresholds were recorded over the course of the experiment as described.\n(§6) Following the original description for partial sciatic nerve ligation by Seltzer et al.^2, surgery was performed in equal number. Under inhalational anaesthesia using isoflurane and nitrous oxide, the left sciatic nerve was exposed at upper-thigh level and the dorsal third—half of the sciatic nerve tightly ligated with a 7-0 silk suture at a site just distal to the point at which the posterior biceps semitendinosus nerve branches off the sciatic nerve. Haemostasis was confirmed and the wound then closed with muscle and skin sutures and a small volume of 0.5% bupivicaine administered subcutaneously. A strict aseptic technique was maintained throughout. The animal was then recovered and returned to its housing environment and a post-operative check conducted the following day. See FIG. 12 for full description and protocol.\nBehavioural tests included simple reflex withdrawal to mechanical, thermal and cold stimuli. […] Baseline sensory thresholds were measured pre-operatively on the day of surgery and on post-operative day eight. […] Sensory thresholds were recorded at time (t) 0, 20, 40, 60 and 80 minutes post drug administration.\nThermal hyperalgesia is assessed using a noxious infrared heat stimulus applied to the plantar surface of both hind paws as described by Hargreaves et al.^4 Paw withdrawal thresholds to a focused beam of radiant heat at a constant temperature of 46° C. and infrared intensity (of twenty for rats and thirty for mice) is measured. […] Sampling is repeated five times to each paw with three minutes between testing and a mean withdrawal threshold is calculated.\n(§7) Statistical significance was determined for neuropathy by the paired t-test and for drug effects by the one-way ANOVA (Dunnett's test) (compared to post-operative values), both taking p<0.05 as statistically significant."}, "[2]": {"tested_on": "rats rendered neuropathic by partial sciatic nerve ligation", "experiment": "Cold allodynia (acetone drop), partial sciatic nerve ligation model", "type": "in vivo, rat", "details": "for positive response to cold stimulus (declined from 100%): between 40-60 minutes post drug"}, "[3]": {"tested_on": "formalin-evoked pain in the rat", "experiment": "Formalin test (CPS-WST(0,1,2) pain score)", "type": "in vivo", "description": "All experiments conformed with British Home Office regulations. Male Wistar rats weighing 230-290 g were obtained from B&K. Animals were housed in group cages and maintained on a 12-hour light-dark cycle with ad libitum access to food and water. Each animal was used in one experiment only.\nL-29 was a gift from D Lambert (see FIG. 1 for chemical structure). SR1 and SR2 were a gift from Sanofi and capsazepine was purchased from Tocris. All drugs were dissolved in 40% dimethyl sulphoxide (DMSO) and saline.\nRats were randomised into seven groups. Investigator JB carried out the dosing of the animals to conform with Home Office regulations, while investigator HJ carried out all other duties including scoring the behavioural test, she was blinded to the drugs given. All animals were acclimatised to the testing environment for at least 30 min prior to the experiment beginning. Each animal received a first intraperitoneal (i.p.) injection of either vehicle or antagonist and five minutes later a second i.p. injection of either vehicle or L-29. […] 10 min later all the animals received a formalin injection.\n50 μl of 2.5% formalin was injected subcutaneously into the dorsum of the right hind paw via a 27G needle. The paw was then marked with permanent ink. The animal was immediately replaced in the observation chamber, a clear plexiglass box measuring 23 cm×18 cm×14 cm, with a mirror positioned underneath at 45° to allow an unobstructed view of the paw. Observations began as the rats were placed in the box and continued for 60 min. Their behaviour was rated according to the Composite Pain Score, Weighted Scores Technique (CPS-WST (0,1,2)), a validated pain behaviour scoring system for the rat formalin test (Watson et al 1997). The amount of time spent in each of 2 behavioural categories was measured for each consecutive 5 min period within the hour scored. Category 1, the injected paw is elevated and not in contact with any surface and category 2, the injected paw is licked, bitten or shaken. A weighted score was then obtained for each 5 min period and for phase 1 (0-15 min) and phase 2 (15-60 min), by using the formula below:\nCPS-WST=(1×time in category 1)+(2×time spent in category 2)\nData was analysed using the one-way ANOVA test followed by Dunnett's test using the SigmaStat 2.3 computer package."}, "[4]": {"tested_on": "WIN2 induced catalepsy", "details": "1 mg/kg i.p.; cited from earlier work"}, "[5]": {"tested_on": "rats rendered neuropathic by partial sciatic nerve ligation", "experiment": "Mechanical allodynia (electronic von Frey), partial sciatic nerve ligation model", "type": "in vivo, rat", "description": "as §1, §2, §3, §4, §5, §6\nBehavioural tests included simple reflex withdrawal to mechanical, thermal and cold stimuli. Before commencing experiments, animals were allowed to acclimatise to the testing environment for at least 15 minutes until exploratory behaviour had ceased. In order to minimise bias, the experiment to be conducted was randomised (according to a predetermined random number table—see table 2) on the day of testing and the drug doses were drawn up and given by a separate investigator to the one scoring the behavioural tests who was blinded to the drugs given. Baseline sensory thresholds were measured pre-operatively on the day of surgery and on post-operative day eight. […] Sensory thresholds were recorded at time (t) 0, 20, 40, 60 and 80 minutes post drug administration. […]\nas §7"}, "[6]": {"target": "T1, CB1 receptors (Homo sapiens, UniProt P21554)", "T1 construct": "expressed in transfected cells", "T1 sequence (P21554 whole entry)": "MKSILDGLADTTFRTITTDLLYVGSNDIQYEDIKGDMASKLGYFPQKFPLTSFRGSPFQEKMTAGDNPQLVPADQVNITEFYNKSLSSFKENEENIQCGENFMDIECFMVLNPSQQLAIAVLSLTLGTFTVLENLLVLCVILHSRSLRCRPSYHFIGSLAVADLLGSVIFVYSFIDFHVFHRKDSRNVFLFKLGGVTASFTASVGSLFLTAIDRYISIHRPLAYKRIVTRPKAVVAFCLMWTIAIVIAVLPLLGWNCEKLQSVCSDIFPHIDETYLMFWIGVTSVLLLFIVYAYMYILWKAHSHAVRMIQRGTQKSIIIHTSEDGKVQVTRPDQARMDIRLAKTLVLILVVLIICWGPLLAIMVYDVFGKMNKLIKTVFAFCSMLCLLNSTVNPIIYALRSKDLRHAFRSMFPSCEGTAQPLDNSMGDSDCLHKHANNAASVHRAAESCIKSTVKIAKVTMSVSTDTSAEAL", "experiment": "Displacement of [3H]-CP55,940 from a cell line transfected with CB1 receptors", "type": "binding", "details": "concentration of 10 μM", "description": "(§8) The FAAH inhibitory compound that we are investigating is an analogue of PEA called palmitoylallylamide (L-29). It was developed by Dr Didier Lambert and team at the Unité de Chimie pharmaceutique et de Radiopharmacie, Universite catholique de Louvain, Brussels, Belgium. The capacity of L-29 to inhibit FAAH was calculated by measuring the ability of the compound to inhibit FAAH catalysed [^3H]-AEA hydrolysis (maximum inhibition and pI50 calculated). […] Binding to CB1 and CB2 receptors was also calculated by measuring the displacement of radioactive [^3H]-CP55,940 from a cell line transfected with CB1 receptors and radioactive [^3H]-WIN55,212-2 from a cell line transfected with CB2 receptors."}, "[7]": {"target": "T2, FAAH (Rattus norvegicus, UniProt P97612)", "T2 sequence (P97612 1-579)": "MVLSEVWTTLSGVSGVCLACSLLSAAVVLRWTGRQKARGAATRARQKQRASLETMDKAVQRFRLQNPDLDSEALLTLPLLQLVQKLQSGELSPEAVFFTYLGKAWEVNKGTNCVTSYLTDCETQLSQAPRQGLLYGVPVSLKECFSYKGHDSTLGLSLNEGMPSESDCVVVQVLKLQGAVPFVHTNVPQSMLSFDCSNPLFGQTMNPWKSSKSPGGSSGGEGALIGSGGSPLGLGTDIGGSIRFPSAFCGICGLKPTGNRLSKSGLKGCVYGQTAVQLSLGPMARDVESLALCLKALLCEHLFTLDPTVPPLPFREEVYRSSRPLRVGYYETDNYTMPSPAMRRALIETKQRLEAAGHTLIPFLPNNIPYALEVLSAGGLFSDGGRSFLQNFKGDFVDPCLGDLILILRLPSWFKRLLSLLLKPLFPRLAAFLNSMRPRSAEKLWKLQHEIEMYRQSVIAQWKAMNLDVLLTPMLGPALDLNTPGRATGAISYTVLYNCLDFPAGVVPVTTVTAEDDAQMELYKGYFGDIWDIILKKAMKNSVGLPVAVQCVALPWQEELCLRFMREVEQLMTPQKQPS", "experiment": "Inhibition of FAAH catalysed [3H]-AEA hydrolysis", "type": "biochemical", "details": "for IC50: FAAH catalysed [3H]-AEA hydrolysis, read-out: pI50 (converted)", "description": "as §8"}, "[8]": {"target": "T3, CB2 receptors (Homo sapiens, UniProt P34972)", "T3 construct": "expressed in transfected cells", "T3 sequence (P34972 whole entry)": "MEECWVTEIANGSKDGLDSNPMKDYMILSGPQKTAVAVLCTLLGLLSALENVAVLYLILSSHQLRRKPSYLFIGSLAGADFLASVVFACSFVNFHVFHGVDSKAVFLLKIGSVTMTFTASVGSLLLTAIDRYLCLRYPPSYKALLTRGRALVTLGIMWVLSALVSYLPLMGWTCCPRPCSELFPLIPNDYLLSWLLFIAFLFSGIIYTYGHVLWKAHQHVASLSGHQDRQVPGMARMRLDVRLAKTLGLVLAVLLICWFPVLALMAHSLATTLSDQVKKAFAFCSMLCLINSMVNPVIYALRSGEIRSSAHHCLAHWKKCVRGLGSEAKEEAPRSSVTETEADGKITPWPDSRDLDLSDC", "experiment": "Displacement of [3H]-WIN55,212-2 from a cell line transfected with CB2 receptors", "type": "binding", "details": "concentration of 10 μM", "description": "as §8"}, "[9]": {"details": "antagonist 1 mgkg^−1 i.p. + L-29 1 mgkg^−1 i.p."}},
  "data": [
    {"smiles": "Cc1c(C(=O)NN2CCCCC2)nn(-c2ccc(Cl)cc2Cl)c1-c1ccc(Cl)cc1", "note": "[SR1, reference compound]", "values": [
      {"measurement": "effect of co-administered antagonist on anti-hyperalgesic effect of L-29 (thermal)", "setting": "[1]; [9]", "result": "appeared not to prevent the anti-hyperalgesic and anti-allodynic effects"},
      {"measurement": "cold allodynia on co-administration of antagonist and L-29", "setting": "[2]; [9]", "result": "significant reduction in % positive response to cold stimulus"},
      {"measurement": "effect of receptor antagonist on antinociceptive effect of L-29", "setting": "[3]; phase 2 (15-60 min), antagonist 1 mg/kg i.p. prior to 1 mg/kg L-29", "result": "reverses the antinociceptive effect of L-29"},
      {"measurement": "time to significant antagonism of WIN2 induced catalepsy", "setting": "[4]", "result": "≤ 15", "unit": "min"},
      {"measurement": "effect of co-administered antagonist on anti-allodynic effect of L-29 (mechanical)", "setting": "[5]; [9]", "result": "appeared not to prevent the anti-hyperalgesic and anti-allodynic effects"}
    ]},
    {"smiles": "C=CCNC(=O)CCCCCCCCCCCCCCC", "note": "[L-29, N-(2-propenyl)hexadecanamide]", "values": [
      {"measurement": "attenuation of thermal hyperalgesia", "setting": "[1]; 0.1 mgkg^−1 i.p.", "result": "only at 40 minutes"},
      {"measurement": "attenuation of thermal hyperalgesia", "setting": "[1]; 1 mgkg^−1 i.p.", "result": "attenuated later between 40 and 60 minutes post drug injection"},
      {"measurement": "attenuation of thermal hyperalgesia", "setting": "[1]; 10 mgkg^−1 i.p., between 20 and 60 minutes post drug", "result": "Attenuation of thermal hyperalgesia was greatest"},
      {"measurement": "displacement of [3H]-CP55,940 in the CB1 assay", "setting": "[6]", "result": 13.3, "unit": "%"},
      {"measurement": "decline in positive response to cold stimulus", "setting": "[2]; 0.1 mgkg^−1 i.p., between 20-40 minutes", "result": "decline by almost half"},
      {"measurement": "positive response to cold stimulus (declined from 100%)", "setting": "[2]; 1 mgkg^−1 i.p.", "result": 50, "unit": "%"},
      {"measurement": "positive response to cold stimulus (declined from 100%)", "setting": "[2]; 10 mgkg^−1 i.p.", "result": 50, "unit": "%"},
      {"measurement": "reversal of cold allodynia", "setting": "[2]; all doses (0.1, 1, 10 mgkg^−1 i.p.)", "result": "did not yield a statistically significant reversal of cold allodynia"},
      {"measurement": "maximum inhibition of FAAH catalysed [3H]-AEA hydrolysis", "setting": "[7]", "result": 67, "unit": "%"},
      {"measurement": "IC50", "setting": "[7]", "result": 3.39, "unit": "µM"},
      {"measurement": "pain behaviour v control", "setting": "[3]; 0.1 mg/kg i.p.", "result": "not significantly different from control"},
      {"measurement": "pain behaviour v control (P<0.05)", "setting": "[3]; 1 mg/kg i.p.", "result": "significantly attenuated pain behaviour"},
      {"measurement": "pain behaviour v control (P<0.05)", "setting": "[3]; 10 mg/kg i.p.", "result": "significantly attenuated pain behaviour"},
      {"measurement": "pain behaviour in both phases of the formalin test", "setting": "[3]; 0.1, 1 and 10 mg/kg i.p., 10 min before 2.5% formalin s.c.", "result": "dose-dependently inhibited"},
      {"measurement": "displacement of [3H]-WIN55,212-2 in the CB2 assay", "setting": "[8]", "result": 7.8, "unit": "%"},
      {"measurement": "reversal of mechanical allodynia", "setting": "[5]; 0.1 mgkg^−1 i.p.", "result": "only at 80 minutes post i.p drug administration"},
      {"measurement": "reversal of mechanical allodynia (mechanical sensory thresholds)", "setting": "[5]; 1 mgkg^−1 i.p., at 20 minutes and 60 minutes post drug", "result": "significant increase in mechanical sensory thresholds"},
      {"measurement": "reversal of mechanical allodynia", "setting": "[5]; 10 mgkg^−1 i.p.", "result": "No effect on mechanical allodynia"}
    ]},
    {"smiles": "Oc1cc2c(cc1O)CN(C(=S)NCCc1ccc(Cl)cc1)CCC2", "note": "[capsazepine, reference compound]", "values": [
      {"measurement": "effect of receptor antagonist on antinociceptive effect of L-29", "setting": "[3]; either phase, SR2 1 mg/kg or capsazepine 10 mg/kg i.p. prior to 1 mg/kg L-29", "result": "do not significantly reverse the antinociceptive effect of L-29"}
    ]},
    {"smiles": "CCCCCCCCCCCCCCCC(=O)NCCO", "note": "[PEA, Palmitoylethanolamide, reference compound]", "values": [
      {"measurement": "displacement of [3H]-CP55,940 in the CB1 assay", "setting": "[6]", "result": 23.8, "unit": "%"},
      {"measurement": "maximum inhibition of FAAH catalysed [3H]-AEA hydrolysis", "setting": "[7]", "result": 78, "unit": "%"},
      {"measurement": "IC50", "setting": "[7]", "result": 5.01, "unit": "µM"},
      {"measurement": "displacement of [3H]-WIN55,212-2 in the CB2 assay", "setting": "[8]", "result": 13.9, "unit": "%"}
    ]}
  ]
}
